The values that follow come from US11166940B2, “Treatment of cardiac disorders by blocking SK4 potassium channel” (Ramot at Tel-Aviv University Ltd., priority 2016, dated 2021).

SMILES strings stand for the structures.

One assay has as its system SAN cells. As to the kind of experiment: Spontaneous APs / pacing rate of isolated SAN cells from WT mice (patch clamp). Format: cell-based, mouse. The following applies: 2 μM TRAM-34 added to 50 nM isoproterenol. As for the experimental part:
(§1) WT and CASQ2 D307H KI mice were anesthetized with isofluorane and sacrificed by cervical dislocation. The heart was rapidly removed and transferred into Tyrode solution containing heparin. […] The area was cleaned, cut into small strips and washed into a Low Calcium Solution, containing (in mM): 140 NaCl, 5.4 KCl, 0.5 MgCl2, 1.2 KH2PO4, 5 HEPES-NaOH, 50 taurine, 5.5 glucose (pH 6.9). The osmolarity was adjusted if needed to 315 mOsm.
The same solution, supplemented with 1 mg/ml albumin, 200 μM CaCl2, collagenase Type I (Worthington) or liberase TH (Roche), protease (Sigma) and elastase (Sigma) was used for enzymatic digestion as previously described [See, Mesirca, P., et al. Nat Commun 5, 4664 (2014)]. In this step, the tissue was gently resuspended with a polished Pasteur pipette in this solution for 9-13 minutes at 37° C. SAN samples were then washed three times in a modified “Kraftbrühe” solution, containing (in mM): 70 glutamic acid, 80 KOH, 20 KCl, 10 γ-Hydroxybutyric acid sodium salt, 10 KH2PO4, 10 HEPES-KOH, 10 taurine, 1 mg/ml albumin, 0.1 EGTA-KOH (pH 7.2). The same solution was used to re-suspend the single cells with a pipet by vigorous up and down, between 3 to 5 minutes at 37° C. Cells were then gradually exposed to increasing concentrations of calcium, following a “Ca^2+ readaptation” protocol [Mesirca et al., 2014, supra]. Experiments were performed the same day at 33° C.
(§2) In all experiments, the coverslips were perfused at 33° C. with an external solution containing (in mM): 140 NaCl, 4 KCl, 11 Glucose, 1.2 MgCl2, 1.8 CaCl2, 5.5 HEPES titrated to pH 7.4 with NaOH and adjusted at 320 mOsm with sucrose.
The spontaneous automaticity of isolated SAN cells was recorded under perforated-patch conditions by adding 30 μM β-escin49 to the intracellular solution containing (in mM): 130 KCl, 10 NaCl, 10 HEPES, 0.2 EGTA-KOH, 2 MgATP, 6.6 Phosphocreatine, 0.05 cAMP and 1 μM free Ca^2+ (pH 7.2). To record SK4 K+ current, a voltage ramp protocol was applied. SAN and hiPS-CMs were held at −40 mV and −20 mV, respectively to substantially inactivate voltage-gated Na^+ and Ca^2+ currents. Cells were stepped from −90 mV to +60 mV for 150 ms. Then, a cocktail (solution 1) containing (in mM) 0.3 cadmium, 0.025 ZD-7288 and 0.01 E-4031 was applied extracellularly to inhibit residual L-type and T-type voltage-gated Ca2+ currents, If and the IKr currents, respectively. […] For voltage-clamp recording of SAN cells, the intracellular solution was the same to that described above for recording spontaneous automaticity.
The spontaneous electric activity of the cell was recorded in the current clamp configuration of the patch clamp technique before (black trace) and during (violet trace) exposure to 2 μM clotrimazole.
FIG. 5E (Left) presents representative traces of spontaneous APs recorded in single SAN cell from WT mice.
(In general: The patch-clamp technique gives a direct electrical read-out from membranes.)

The subject of assay [1] is SAN cells from CASQ2-D307H KI mice. As to the kind of experiment: Spontaneous APs and DADs of isolated SAN cells from CASQ2 D307H KI mice. Format: cell-based, mouse. The following applies: 2 μM TRAM-34 added to 50 nM isoproterenol. As for the experimental part:
as §1
The same solution, supplemented with 1 mg/ml albumin, 200 μM CaCl2, collagenase Type I (Worthington) or liberase TH (Roche), protease (Sigma) and elastase (Sigma) was used for enzymatic digestion as previously described [See, Mesirca, P., et al. Nat Commun 5, 4664 (2014)]. In this step, the tissue was gently resuspended with a polished Pasteur pipette in this solution for 9-13 minutes at 37° C. SAN samples were then washed three times in a modified “Kraftbrühe” solution, containing (in mM): 70 glutamic acid, 80 KOH, 20 KCl, 10 γ-Hydroxybutyric acid sodium salt, 10 KH2PO4, 10 HEPES-KOH, 10 taurine, 1 mg/ml albumin, 0.1 EGTA-KOH (pH 7.2). […] Cells were then gradually exposed to increasing concentrations of calcium, following a “Ca^2+ readaptation” protocol [Mesirca et al., 2014, supra]. […]
FIG. 5F (Left) presents representative traces of spontaneous APs recorded in single SAN cell from CASQ2 D307H KI mice. […]

The target of another assay is T1, SK4 K+ currents (Mus musculus, UniProt O89109).
T1 construct: representative traces of SAN cells isolated from WT and CASQ2-D307H KI mice; endogenous in cells; host or cells: primary sinoatrial node (SAN) cells dissociated from WT and CASQ2-D307H KI mouse hearts
The assay is described as follows: Voltage-ramp recording of TRAM-34-sensitive current in SAN cells from WT and CASQ2-D307H KI mice. Format: cell-based. The following applies: 5 μM TRAM-34 added to solution 1. The text has this:
Individual SAN cells were isolated from WT and CASQ2-D307H homozygous KI mice and recorded as described above, except that cells were held at −40 mV to improve their stability.
FIGS. 5A-B presents representative traces of SAN cells isolated from WT and CASQ2-D307H KI mice. […] The orange traces indicate that cells were exposed to blocker solution 1. […] The inward hump and substantial inward and outward currents disappeared upon exposure of cells to solution 1 (orange traces).

For the next assay, the system named is normal hiPSC-CMs. The assay is described as follows: Spontaneous APs in hiPS-CMs derived from normal individuals. The assay is classed as cell-based, human. Conditions: 5 μM TRAM-34 added to 3 μM isoproterenol. The protocol: as §2
FIG. 4E (Left) presents representative traces of spontaneous APs recorded in hiPS-CM derived from a normal individual. […] FIG. 4E (Right) are bar graphs presenting data summary of pacing rate (normalized to Ctrl; one-way ANOVA **P=0.0071, n=14), DD slope (paired t-test, ***P<0.0001, n=14) and APD50 (one-way ANOVA *P=0.0243, n=18).

For the molecule `Clc1ccccc1C(c1ccccc1)(c1ccccc1)n1cccn1` [TRAM-34, 1-[(2-chlorophenyl)diphenylmethyl]-1H-pyrazole], in the assay on SAN cells, the DD slope result is “markedly reduced the DD slope”, the MDP result is recorded as “depolarized the MDP”, the beating rate entry was “decreased the beating rate” and the “cells in which pacing activity stopped” value was 3 out of 7. Further, the “occurrence of DADs” value in assay [1] is reported as “drastically reduced”. The TRAM-34-sensitive current density result at SK4 K+ currents was “TRAM-34-sensitive currents with similar densities were isolated”. Further, in the assay with normal hiPSC-CMs, the “cells with suppression of the pacing” value was 10 out of 14, the “maximal diastolic potential (MDP)” value is “depolarized the maximal diastolic potential” and the “slope of diastolic depolarization (DD)” value is “significantly decreased the slope of diastolic depolarization”.
